Test results taken from US20080248511A1, “METHODS TO QUENCH LIGHT FROM OPTICAL REACTIONS” (priority 2007, published 2008).

Legend:
[1] = molecular target: firefly luciferase (Photinus pyralis, UniProt P08659); experiment: Non-detergent compound screen, firefly luciferase (Example 6); type: biochemical; details: 0.5% Tergitol NP-9, 0.03% BDDABr
Procedure: (§1) Each compound was diluted into 200 mM MOPS pH 6.7, 4 μM MgSO4, 1 mM CDTA, 0.5% Tergitol NP-9, 0.05% Mazu-DF-204, 0.03% BDDABr, 30 mM thiourea, 1 mM bis-(2-mercaptoethylsulfone) (BMS), 4 μM CoA, and 1 μM 5-fluoroluciferin. Just prior to the luciferase reaction, 0.1% Prionex® (Pentapharm) and 2.9 μM coelenterazine-h (Promega) were added to each solution.
(§2) The firefly luciferase and Renilla luciferase enzymes were diluted as described in Examples 3 and 5. The luciferase reactions were initiated by adding 50 μl of the firefly luciferase and Renilla luciferase enzyme solution to 50 μl of reagent solution. The reactions were performed as described above. The retained Renilla and firefly luciferase-mediated luminescence and selectivity values for each inhibitor tested are listed in Table 6.

[2] = molecular target: T1, Renilla luciferase (Renilla reniformis, UniProt P27652); experiment: Non-detergent compound screen, Renilla luciferase (Example 6); type: biochemical
T1 sequence (P27652 1-311): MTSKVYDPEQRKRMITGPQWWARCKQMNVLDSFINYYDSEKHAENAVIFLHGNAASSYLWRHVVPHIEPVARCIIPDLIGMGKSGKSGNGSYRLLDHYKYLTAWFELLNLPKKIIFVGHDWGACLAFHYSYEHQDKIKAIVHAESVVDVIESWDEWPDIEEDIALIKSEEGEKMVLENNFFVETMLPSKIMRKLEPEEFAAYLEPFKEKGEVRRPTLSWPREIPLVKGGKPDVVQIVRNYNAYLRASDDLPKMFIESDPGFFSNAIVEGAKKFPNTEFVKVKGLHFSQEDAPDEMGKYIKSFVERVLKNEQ
Procedure: as §1, §2

[3] = inhibitor 1000 μM, read-out: Retained Firefly Luciferase Value (%)
[4] = inhibitor 1000 μM, 0.5% Tergitol NP-9, 0.03% BDDABr, read-out: Retained Renilla Luciferase Value (%)
[5] = inhibitor 10 μM, read-out: Retained Firefly Luciferase Value (%)
[6] = inhibitor 100 μM, read-out: Retained Firefly Luciferase Value (%)
[7] = inhibitor 10 μM, 0.5% Tergitol NP-9, 0.03% BDDABr, read-out: Retained Renilla Luciferase Value (%)
[8] = inhibitor 100 μM, 0.5% Tergitol NP-9, 0.03% BDDABr, read-out: Retained Renilla Luciferase Value (%)

Sequence of firefly luciferase (P08659 whole entry): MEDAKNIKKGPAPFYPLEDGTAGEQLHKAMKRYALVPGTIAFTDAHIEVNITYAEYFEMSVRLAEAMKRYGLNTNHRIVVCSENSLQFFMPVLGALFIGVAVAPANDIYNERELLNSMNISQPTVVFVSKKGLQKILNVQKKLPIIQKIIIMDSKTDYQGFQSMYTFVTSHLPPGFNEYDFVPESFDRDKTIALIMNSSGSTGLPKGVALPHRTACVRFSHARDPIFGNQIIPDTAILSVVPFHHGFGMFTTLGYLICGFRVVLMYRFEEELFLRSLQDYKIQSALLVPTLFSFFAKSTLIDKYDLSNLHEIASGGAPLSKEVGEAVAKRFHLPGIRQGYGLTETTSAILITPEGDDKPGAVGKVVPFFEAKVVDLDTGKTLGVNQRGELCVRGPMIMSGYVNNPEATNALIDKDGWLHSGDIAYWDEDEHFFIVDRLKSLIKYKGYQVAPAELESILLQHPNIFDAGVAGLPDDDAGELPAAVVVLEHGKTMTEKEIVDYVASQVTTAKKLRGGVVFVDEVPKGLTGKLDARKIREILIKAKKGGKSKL

Structure (SMILES): COc1ccc(CNC(=O)/C=C/c2ccc3oc(=O)cc(C)c3c2)cc1 [Compound 3057, (E)-N-(4-methoxybenzyl)-3-(4-methyl-2-oxo-2H-chromen-6-yl)acrylamide]
- remaining activity at 23 µM ([1]; inhibitor 23 μM, read-out: Retained Firefly Luciferase Value (%)): 100%
- remaining activity at 153 µM ([1]; inhibitor 153 μM, read-out: Retained Firefly Luciferase Value (%)): 98%
- remaining activity at 1000 µM [1, 3]: 102%
- inhibitor of Renilla luciferase, grade in words [2]: suitable inhibitors of Renilla luciferase
- Selectivity Value ([2]; inhibitor 23 μM): 1
- remaining activity at 23 µM ([2]; inhibitor 23 μM, 0.5% Tergitol NP-9, 0.03% BDDABr, read-out: Retained Renilla Luciferase Value (%)): 100%
- Selectivity Value ([2]; inhibitor 153 μM): 1.1
- remaining activity at 153 µM ([2]; inhibitor 153 μM, 0.5% Tergitol NP-9, 0.03% BDDABr, read-out: Retained Renilla Luciferase Value (%)): 93%
- Selectivity Value ([2]; inhibitor 1000 μM): 1.3
- remaining activity at 1000 µM [2, 4]: 77.5%

Structure (SMILES): COc1ccc(CNC(=O)/C=C/c2ccc3[nH]ccc3c2)cc1 [Compound 3056, (E)-3-(1H-indol-5-yl)-N-(4-methoxybenzyl)acrylamide]
- remaining activity at 10 µM [1, 5]: 101%
- remaining activity at 100 µM [1, 6]: 100%
- remaining activity at 1000 µM [1, 3]: 89%
- inhibitor of Renilla luciferase, grade in words [2]: inhibitors of Renilla luciferase
- Selectivity Value ([2]; inhibitor 10 μM): 1.1
- remaining activity at 10 µM [2, 7]: 93%
- Selectivity Value ([2]; inhibitor 100 μM): 1.3
- remaining activity at 100 µM [2, 8]: 79%
- Selectivity Value ([2]; inhibitor 1000 μM): 2.7
- remaining activity at 1000 µM [2, 4]: 32.6%

Structure (SMILES): COc1ccc(CNC(=O)/C=C/c2ccc3[nH]cc(CCN(C)C)c3c2)c(OC)c1 [Compound 3051, (E)-N-(2,4-dimethoxybenzyl)-3-(3-(2-(dimethylamino)ethyl)-1H-indol-5-yl)acrylamide]
- remaining activity at 10 µM [1, 5]: 102%
- remaining activity at 100 µM [1, 6]: 102%
- remaining activity at 1000 µM [1, 3]: 102%
- inhibitor of Renilla luciferase, grade in words [2]: excellent inhibitors of Renilla luciferase
- Selectivity Value ([2]; inhibitor 10 μM): 1.9
- remaining activity at 10 µM [2, 7]: 55%
- Selectivity Value ([2]; inhibitor 100 μM): 7.3
- remaining activity at 100 µM [2, 8]: 14%
- Selectivity Value ([2]; inhibitor 1000 μM): 53.7
- remaining activity at 1000 µM [2, 4]: 1.9%

Structure (SMILES): COc1cc(OC)c(CNC(=O)/C=C/c2ccc3[nH]cc(CCN(C)C)c3c2)c(OC)c1 [Compound 3073, (E)-3-(3-(2-(dimethylamino)ethyl)-1H-indol-5-yl)-N-(2,4,6-trimethoxybenzyl)acrylamide]
- remaining activity at 10 µM [1, 5]: 101%
- remaining activity at 100 µM [1, 6]: 100%
- remaining activity at 1000 µM [1, 3]: 101%
- inhibitor of Renilla luciferase, grade in words [2]: inhibitors of Renilla luciferase
- Selectivity Value ([2]; inhibitor 10 μM): 0.99
- remaining activity at 10 µM [2, 7]: 102%
- Selectivity Value ([2]; inhibitor 100 μM): 1.5
- remaining activity at 100 µM [2, 8]: 87%
- Selectivity Value ([2]; inhibitor 1000 μM): 2.9
- remaining activity at 1000 µM [2, 4]: 34.5%

Structure (SMILES): CCCCCC[N+](C)(C)CCc1c[nH]c2ccc(/C=C/C(=O)NCc3ccc(OC)cc3)cc12.[I-] [Compound 3078, (E)-N-(2-(5-(3-(4-methoxybenzylamino)-3-oxyprop-1-enyl)-1H-indol-3-yl)ethyl)-N,N-dimethylhexan-1-aminium iodide]
- Retained Firefly Luciferase Value (%) ([1]; inhibitor 10 μM): 100%
- Retained Firefly Luciferase Value (%) ([1]; inhibitor 100 μM): 100%
- Retained Firefly Luciferase Value (%) ([1]; inhibitor 1000 μM): 99%
- Selectivity Value ([2]; inhibitor 10 μM): 20
- Retained Renilla Luciferase Value (%) ([2]; inhibitor 10 μM, 0.5% Tergitol NP-9, 0.03% BDDABr): 5.0%
- Selectivity Value ([2]; inhibitor 100 μM): 100
- Retained Renilla Luciferase Value (%) ([2]; inhibitor 100 μM, 0.5% Tergitol NP-9, 0.03% BDDABr): 1.0%
- Selectivity Value ([2]; inhibitor 1000 μM): 990
- Retained Renilla Luciferase Value (%) ([2]; inhibitor 1000 μM, 0.5% Tergitol NP-9, 0.03% BDDABr): 0.1%
